Consider 14 compounds from patent publication US11311541B2 (priority 2014, dated 2022).

One may read the IC50 as the concentration needed to halve the response being measured.

Entries after “also recorded” stand apart in the source; their conditions may differ. Where two headings read alike, the source gives them in different places.

Data set [1] addresses ROCK1 (Homo sapiens (Human), UniProt Q13464). The format is biochemical.
Excerpt: (§2) Dose response curves for Rho-kinase inhibition were derived from a Invitrogen Z′-LYTE™ Kinase Assay Kit (Invitrogen catalog number PV3793). Purified active ROCK1 and ROCK2 were obtained from Invitrogen (catalog numbers ROCK1, PV3691 and ROCK2, PV3759). The kit components include a coumarin and fluorescein labeled peptide based on myosin light chain 2 ([sequence]), a proprietary protease containing development reagent and a proprietary Stop buffer used to terminate the development reaction. The inhibitory activities of compounds are measured according to the manufactures protocol. […] This mixture is overlayed into a white 96-well half area plate and the reaction is initiated with the addition of 5 uM ATP for ROCK1 or 12 uM ATP for ROCK2. The assay proceeds at room temperature for 1 hour followed by the addition of development reagent, and further incubation for 1 hour at room temperature. STOP reagent is then added and the reaction and immediately the coumarin and fluorescein emission signals are read on a Tecan Infinite M1000 fluorescence plate reader (excitation: 400 nm; emission 445 and 520 nm, respectively). By comparing the emission ratios of the test samples against control samples, percent phosphorylation values are calculated and the concentration of inhibitor that produces ½ inhibition of kinase activity (IC50) is determined using Prism.
The target of data set [2] is T1, ROCK2 (Homo sapiens (Human), UniProt O75116). The following applies: read-out: ROCK2 IC50.
Excerpt: as §2
For data set [3], the system named is cytokine secretion. Briefly: cytokine secretion, FIG. 10. The format is cell-based.
Data set [4] has as its target T1, ROCK2. As to the kind of experiment: biochemical.
Excerpt: as §2
In data set [5] the test system is CD4+ human T cells. As to the kind of experiment: cytokine secretion of anti-CD3/CD28 stimulated CD4+ T cells in vitro. Particulars: anti-CD3/CD28 stimulation. In kind it is cell-based. An excerpt: (§1) Activation of resting T cells, resulting in cytokine secretion and proliferation, involves two distinct signals from antigen-presenting cells (APCs), mimicked by co-stimulation of the T cell receptor (TCR)/CD3 complex and the CD28 receptor.

Data set [6] deals with CD4+ human T cells. As to the kind of experiment: T cell proliferation in response to TCR stimulation in vitro. The format is cell-based.
Excerpt: as §1

Data set [7] relates to STAT3 phosphorylation. As to the kind of experiment: STAT3 phosphorylation in T cells. The format is cell-based, human. The method, then: STAT3 plays a critical role in Th17 differentiation via regulation of RORγt expression and direct binding to the IL-17 and IL-21 promoters. […] In a different experiment, cells were cultured under Th17-skewing conditions for 5 days and then treated with the ROCK2 selective inhibitor for 3 hours.

Data set [8] concerns CD4+ T cells from RA patients. Briefly: cytokine secretion ex vivo in CD4+ T cells from RA patients. In kind it is cell-based, human. An excerpt: Among RA patients, inhibition of IFN-γ production was correlated with disease activity score (DAS). (FIG. 12B).
Data set [9] relates to human CD4+ T cells. As to the kind of experiment: Foxp3+ cells among CD4+ T cells. In kind it is cell-based. The following applies: 5 days of Th17 skewing activation. An excerpt:
Foxp3 is a lineage-specific transcription factor for Tregs and is crucial to the development and inhibitory function of these cells. STAT5 signaling positively regulates the induction and stabilization of Foxp3 expression in T cells in vitro and in vivo. […] (FIG. 14).

Data set [10] relates to CD4+CD25+ human Tregs. As to the kind of experiment: Treg inhibition of IL-17 secretion in CD4+CD25- T cells. In kind it is cell-based. The following applies: Tregs treated 3 hours; Treg:Teff 1:4 and 1:9.
The subject of data set [11] is TGF-β-induced STAT3, MLC and SMAD2/3 phosphorylation. Briefly: TGF-β-induced phosphorylation in Tregs. In kind it is cell-based. An excerpt:
(FIG. 16). TGF-3 is involved in development and function of both Th17 and Treg subsets of T cells. However, when Tregs are regulated in Smad2/3-dependent signaling mechanism, TGF-β regulates Th17 cells in Smad2/3 independent manner that is considered as non-canonical TGF-β-induced signaling.

Data set [12] relates to PBMCs of treated patients. Briefly: ex vivo stimulation of cytokine production in PBMCs isolated from treated patients. Also noted: species or system human. The following applies: 120 mg/day, days 1 and 8-14; anti-CD3/CD28 72 hours. Here is the method: Peripheral blood mononuclear cells (PBMCs) were collected at the start and end of the trial and stimulated by plating on immobilized anti-CD3/CD28 antibodies for 72 hours, and levels of IL-17, IL-21, and IFN-γ were measured. […] No effect on IFN-γ was observed.

Data set [13] deals with murine model of chronic GVHD. Briefly: germinal centers and Tfh cells in spleen, murine model of chronic GVHD. In kind it is in vivo, mouse. Particulars: 150 mg/kg. The method, then:
Fixed 6-μm spleen cryosections of mice were stained with rhodamine-conjugated peanut agglutinin (PNA; Vector Laboratories), and the size of the PNA-positive sections was measured and defined as germinal centers. For flow cytometric analysis of Tfh cells and GC B cells, single-cell suspensions from spleens were obtained and labeled with anti-CD4, anti-CXCR5, and anti-PD1 antibodies (eBioscience). Cells were analyzed on a BD LSRFortessa cell analyzer.

In data set [14] the test system is STAT3/STAT5 phosphorylation, RORγt, IRF4, Bcl6 in spleens. Briefly: Western blot of spleen cells, murine model of cGVHD. The format is in vivo, mouse. The following applies: treatment days 28-56.
Experimental: Mice were treated as described above, except that twelve animals per group were tested. […] (n=3/group). Spleens were also collected for analysis on day 56. […] Single cell suspensions were prepared from the isolated spleens. Cells were lysed in RIPA buffer and analyzed for protein content. Sample buffer was then added, and, after boiling, the samples, containing equal amounts of proteins, were separated by SDS-PAGE gel electrophoresis and transferred to a nitrocellulose membrane. Membranes were blocked and probed with specific antibodies overnight. Actin was used as a loading control. Anti-pSTAT3 pSTAT5 and Bcl6 antibodies were purchased from Cell Signaling Technologies (Beverly, Mass.). Anti-IRF4 (sc-48338) and anti-RORγt (14-6988) were obtained from Santa Cruz Biotechnology Inc. and eBioscience respectively. Immunoreactive protein bands were visualized using an HRP-conjugated secondary antibodies and an enhanced ECL system.
Data set [15] is described as follows: plasma KD025 concentration in murine chronic GVHD. Particulars: day 56, 1-hr pre-dose and 1-hr post-dose. In kind it is in vivo, mouse.
Experimental: Mice were treated as described above, except that twelve animals per group were tested. […] (n=3/group).
Data set [16] has as its system sclerodermatous cGVHD mouse model. As to the kind of experiment: sclerodermatous cGVHD mouse model (B10.D2 into BALB/c). In kind it is in vivo. An excerpt:
In this model, BALB/c (H-2^d) mice received 775 cGy of total body radiation on day 0 and were transplanted with bone marrow and T-cells from B10.D2 (H-2^d) mice. […] The GVHD score in this model combined changes in weight lost, posture, activity, fur texture, and skin integrity (FIG. 26). Sclerodermatous cGVHD mice were further analyzed as depicted in FIGS. 27-35.

Data set [17] deals with murine model of chronic GVHD. Briefly: murine model of chronic GVHD, lung pathology.
Experimental: On day −1, recipients received total-body irradiation (TBI) by X-ray (8.5 Gy). Donor bone marrow (BM) was T-cell depleted with anti-Thy 1.2 mAb followed by rabbit complement. On day 0, recipients received 10^7 BM cells with or without allogeneic splenocytes (10^6 cells). Weights of individual mice were recorded twice weekly. […] The analysis of pulmonary function was performed on day 28 (before the treatment) and on day 56. Anesthetized mice were weighed, and lung function was assessed by wholebody plethysmography with the Flexivent system (SCIREQ) and analyzed with Flexivent Version 5.1 software. Survival data were analyzed by life-table methods, and actuarial survival rates are shown. Group comparisons were made by log-rank test.
Lungs were inflated by infusion of 1 mL of optimal cutting temperature compound:PBS (3:1) intratracheally prior to harvest. Six-micrometer cryosections were fixed for 5 minutes in acetone and stained with mMasson's trichrome staining kit (Sigma-Aldrich) for detection of collagen deposition. Collagen deposition was quantified on trichrome-stained sections as a ratio of area of blue staining to area of total staining by use of the Adobe mPhotoshop CS3 analysis tool (Adobe Systems). For measuring Ig deposition, acetone-fixed 6-m lung cryosections were blocked with horse serum and streptavidin-biotin blocking kit (Vector) and stained with fluorescein isothiocyanate (FITC)-labeled anti-mouse-Ig (BD Pharmingen). Antibody deposition was quantified by area of Ig staining per 100-μm section.
Mice were treated as described above, except that twelve animals per group were tested. […] (n=3/group). Spleens were also collected for analysis on day 56. […] Pulmonary function tests and analysis of body weight were performed as described above.
[18] abbreviates: Table 3 (Example 203, method not given).
Setting [19] is: 2 RA patients, intracellular staining.
The mark [20] stands for this setting: RA patients, anti-CD3/CD28, ex vivo.
The mark [21] stands for this setting: day 98, 42 days after last administration.

T1 sequence (O75116 1-552): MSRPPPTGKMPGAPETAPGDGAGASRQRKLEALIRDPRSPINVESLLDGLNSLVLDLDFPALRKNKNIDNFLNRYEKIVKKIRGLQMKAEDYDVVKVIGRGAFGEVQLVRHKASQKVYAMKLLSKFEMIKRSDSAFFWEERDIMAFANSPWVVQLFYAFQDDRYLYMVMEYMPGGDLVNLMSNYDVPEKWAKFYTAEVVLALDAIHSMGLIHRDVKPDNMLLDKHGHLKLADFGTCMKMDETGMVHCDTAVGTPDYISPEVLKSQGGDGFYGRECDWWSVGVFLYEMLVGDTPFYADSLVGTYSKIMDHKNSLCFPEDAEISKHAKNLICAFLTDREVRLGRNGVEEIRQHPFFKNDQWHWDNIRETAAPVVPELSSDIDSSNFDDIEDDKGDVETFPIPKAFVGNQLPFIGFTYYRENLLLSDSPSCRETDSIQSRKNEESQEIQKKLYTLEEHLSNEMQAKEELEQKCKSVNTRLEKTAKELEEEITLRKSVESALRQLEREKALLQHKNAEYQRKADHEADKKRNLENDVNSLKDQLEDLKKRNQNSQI
Sequence of ROCK1 (Q13464 1-535): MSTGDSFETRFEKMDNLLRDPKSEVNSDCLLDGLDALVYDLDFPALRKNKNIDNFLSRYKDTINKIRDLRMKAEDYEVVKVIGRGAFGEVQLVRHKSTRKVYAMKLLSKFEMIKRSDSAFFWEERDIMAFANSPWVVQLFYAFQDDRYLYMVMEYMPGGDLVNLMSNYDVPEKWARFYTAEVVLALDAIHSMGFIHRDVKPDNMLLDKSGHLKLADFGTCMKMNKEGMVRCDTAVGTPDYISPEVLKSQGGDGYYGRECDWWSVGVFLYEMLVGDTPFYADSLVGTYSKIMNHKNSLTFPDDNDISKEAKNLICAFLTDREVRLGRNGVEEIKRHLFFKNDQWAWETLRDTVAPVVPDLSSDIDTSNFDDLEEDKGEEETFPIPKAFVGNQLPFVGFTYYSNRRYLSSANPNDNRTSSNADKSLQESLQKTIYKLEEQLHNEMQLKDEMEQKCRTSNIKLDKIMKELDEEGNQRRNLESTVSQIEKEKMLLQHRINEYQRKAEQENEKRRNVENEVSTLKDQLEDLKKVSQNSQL

In the case of `CC(N)c1cccc(-c2nccc(Nc3ccc4[nH]ncc4c3)n2)c1` (stereo not drawn) [Example 147, N-(2-(3-(1-aminoethyl)phenyl)pyrimidin-4-yl)-1H-indazol-5-amine], the IC50 in data set [1] (Table 2, 5 uM ATP) is greater than 2 µM; in [2] (Table 2, 12 uM ATP), greater than 5.5 µM.
For `CC(C)NC(=O)COc1cccc(-c2nc(Nc3ccc4[nH]ncc4c3)cc(C(F)(F)F)n2)c1` [Example 169] the same measures were greater than 10 µM and greater than 10 µM.
As for `COc1ccc2c(c1)CN(c1nccc(Nc3ccc4[nH]ncc4c3)n1)C2` [Example 181, N-(2-(5-methoxyisoindolin-2-yl)pyrimidin-4-yl)-1H-indazol-5-amine], the “secretion of IL-21” value in data set [3] (FIG. 10 Panel A) is “inhibits”. The “inhibition of IL-17 secretion” value in [3] (FIG. 10 Panel B) is “dose-dependent”.
For `c1ccc2c(c1)CN(c1nccc(Nc3ccc4[nH]ncc4c3)n1)C2` [Example 182, N-(2-(isoindolin-2-yl)pyrimidin-4-yl)-1H-indazol-5-amine], in data set [1] (setting [18]), the IC50 was greater than 10 µM.
Consider `COc1ccc2c(c1)CN(c1ccnc(Nc3ccc4[nH]ncc4c3)n1)C2` [Example 188, N-(4-(5-methoxyisoindolin-2-yl)pyrimidin-2-yl)-1H-indazol-5-amine], for which, in [1] (setting [18]), the IC50 is greater than 10 µM.
The compound `Clc1ccc2c(c1)CN(c1nccc(Nc3ccc4[nH]ncc4c3)n1)C2` [Example 190, N-(2-(5-chloroisoindolin-2-yl)pyrimidin-4-yl)-1H-indazol-5-amine] returned an IC50 in data set [1] (setting [18]) greater than 10 µM.
In data set [1] (setting [18]), `COc1ccc2c(c1)CCN(c1nccc(Nc3ccc4[nH]ncc4c3)n1)C2` [Example 191, N-(2-(6-methoxy-3,4-dihydroisoquinolin-2(1H)-yl)pyrimidin-4-yl)-1H-indazol-5-amine] displayed an IC50 greater than 10 µM.
The same measure, in the same setting: with `c1cc(Nc2ccc3[nH]ncc3c2)nc(N2CCc3sccc3C2)n1` [Example 192, N-(2-(6,7-dihydrothieno[3,2-c]pyridin-5(4H)-yl)pyrimidin-4-yl)-1H-indazol-5-amine] the figure was greater than 10 µM; with `COc1ccc2c(c1)CN(c1cc(Nc3ccc4[nH]ncc4c3)ncn1)C2` [Example 193, N-(6-(5-methoxyisoindolin-2-yl)pyrimidin-4-yl)-1H-indazol-5-amine], greater than 10 µM.
Consider `COc1ccc2c(c1)CN(c1cc(Nc3ccc4[nH]ncc4c3)nc(C)n1)C2` [Example 194, N-(6-(5-methoxyisoindolin-2-yl)-2-methylpyrimidin-4-yl)-1H-indazol-5-amine], for which the IC50 in data set [1] (setting [18]) was greater than 10 µM; in data set [4], 0.13 to 0.18 µM.
Turning to `c1cc2c(cn1)CN(c1nccc(Nc3ccc4[nH]ncc4c3)n1)C2` [Example 195, N-(2-(1H-pyrrolo[3,4-c]pyridin-2(3H)-yl)pyrimidin-4-yl)-1H-indazol-5-amine], in data set [1] (setting [18]), the IC50 is greater than 10 µM.
Take `COc1ccc2c(c1)CN(c1nc(C)c(C)c(Nc3ccc4[nH]ncc4c3)n1)C2` [Example 196, N-(2-(5-methoxyisoindolin-2-yl)-5,6-dimethylpyrimidin-4-yl)-1H-indazol-5-amine]: the IC50 in data set [2] (setting [18]) is greater than 0.01 µM.
`COc1ccc2c(c1)CN(c1nccc(Nc3ccc(-c4ccncc4)cc3)n1)C2` [Example 200, 2-(5-methoxyisoindolin-2-yl)-N-(4-(pyridin-4-yl)phenyl)pyrimidin-4-amine] returned an IC50 in data set [1] (setting [18]) greater than 10 µM.
`CC(C)NC(=O)COc1cccc(-c2nc(Nc3ccc4[nH]ncc4c3)c3ccccc3n2)c1` [KD025]: in data set [5], the IFN-γ secretion result is “less robust and significant only at high dose (10 μM)”; the IL-2 secretion result is reported as “observed only at the highest concentration (10 μM)”; the IL-17 secretion entry is listed as “significantly inhibited”; the IL-21 secretion entry is “significantly inhibited”. For the same compound, in data set [6], the “proliferation in response to TCR stimulation” value is recorded as “down-regulated their ability to proliferate”. For the same compound, the “phosphorylation of IFR4 and RORγT” value in data set [7] (separate experiment, FIG. 11C) is reported as “reduced phosphorylation”. Besides, in data set [7] (two designs: pre-treatment then anti-CD3/CD28, Th17-skewing 5 days then 3 hours treatment), the “phosphorylation of STAT3” value is listed as “significantly down-regulates”. Also, in data set [8] (setting [19]), the “frequency of IFN-γ-producing cells” value was “significantly reduced the frequencies” and the “frequency of IL-17-producing cells” value is “significantly reduced the frequencies”. Further, in data set [8] (setting [20]), the IFN-γ secretion result is given as “significantly down-regulated”, the IL-17 secretion entry is “significantly down-regulated” and the IL-21 secretion result is “significantly down-regulated”. Further, the “percentage of Foxp3+ cells” value in data set [9] is recorded as “significantly increased”. For the same compound, the “ability of Tregs to suppress IL-17 secretion in CD4+CD25- effector T cells” value in data set [10] is reported as “significantly increased”. For the same compound, in [11], the “TGF-β-induced MLC phosphorylation” value was “down-regulates”, the “TGF-β-induced STAT3 phosphorylation” value was “down-regulates” and the “phosphorylation of SMAD2/3” value was “remains intact”. In addition, in [12], the “induction of IL-17 secretion in PBMCs” value was “significantly inhibited in PBMCs isolated from four of five patients” and the “induction of IL-21 secretion in PBMCs” value is listed as “significantly inhibited in PBMCs from all five patients”. In data set [13], the “numbers of CD4+PD1HiCXCR5 Tfh cells in spleen” value is given as “reversed” and the “numbers of germinal centers in spleen” value was “reversed”. Further, in data set [14], the “STAT3 phosphorylation in spleens” value is given as “significant reduction”; the “STAT5 phosphorylation in spleens” value is “concurrent increase”; the “protein levels of RORγt, IRF4 and Bcl6 in spleenocytes” value is reported as “dose-dependent decrease”. For the same compound, the “plasma KD025 concentrations” value in [15] was “measurable and generally dose dependent”. For the same compound, the “cervical LN T Cell IFNg” value in [16] (FIG. 32) is “decreased”. Besides, the “development of chronic sclerodermatous cGVHD” value in data set [16] (i.p. once daily days 19-47) is recorded as “blocked the development”. Moreover, the GVHD score entry in data set [16] (i.p. once daily days 19-47, weight lost, posture, activity, fur texture, skin integrity) was “significantly decreased”. The “pulmonary function (resistance, elastance, compliance)” value in data set [17] (100 mg/kg i.p. daily from day 28, tested day 56) was “significantly improved and normalized pulmonary function”. In addition, in data set [17] (150 mg/kg), the “antibody deposition in lungs” value is “essentially indistinguishable from samples from uninduced mice” and the “collagen deposition in lungs” value is “essentially indistinguishable from samples from uninduced mice”. Also, the “effect on cGVHD lung pathology, dose dependence” value in data set [17] (30, 100, 150 mg/kg) was “dose dependent”. The body weight result in [17] (Example 216, FIG. 23) is listed as “no effect”. Besides, in [17] (FIG. 18), the survival rates result is “no effect”. Further, in data set [17] (FIG. 18, 19), the body weight result is reported as “no effect”. Further, in data set [17] (setting [21]), the lung resistance entry is listed as “dose-dependent decrease” and the respiratory function entry is on record as “long-lasting improvement; also recorded: Partial improvement”.
